From article PMC8546421, “Molecular modelling of the FOXO4-TP53 interaction to design senolytic peptides for the elimination of senescent cancer cells” (EBioMedicine, 2021)
Where no end group is shown, it is not given here.

Legend:
[1] = system: dividing A375 human melanoma cells; assay: Survival study, orthotopic A375 xenograft; format: in vivo, mouse; conditions: local injection once daily for two days
Text: Mice were aged between 3-8 months and 20-30 g in weight and were housed in specific pathogen free cages. Animals were randomly distributed among treatment groups by assigning mice within the same cage to different treatment regimens. To minimise confounders, mouse treatment order was randomised within each cage. Male and female mice were distributed between all treatment groups since the chemicals used were directly injected and are not metabolized. Researchers were not blinded to the group allocation, but all attempts were made to analyse the data without knowing treatment conditions. NOD.Cg-Prkdcscid Il2rgtm1Wjl/SzJ (NSG) were purchased from The Jackson Laboratory (IMSR Cat# JAX:005557, RRID:IMSR_JAX:005557). NOD.Cg-KitW-41J Tyr + Prkdcscid Il2rgtm1Wjl/ThomJ (NBSGW) were purchased from The Jackson Laboratory (IMSR Cat# JAX:026622, RRID:IMSR_JAX:026622). Immunocompromised mice used for these experiments were all in the NSG background; however, some mice were F1 generation of NSG x NBSGW, thus the brown coat colour as NBSGW mice have tyrosinase. Xenografts containing senescent cells were established by injecting A375-Luc/iRFP human melanoma cells which contained a luciferase expressing gene into immunocompromised NSG ears. Senescence was induced in the cells via doxorubicin treatment (40 nM) then resuspended in DMEM prior to injection. Each ear was then injected with 50 µL containing approximately 1,000,000 cells. The ears were treated once daily for two days with 50 µL of either 5 mg/mL peptide, or saline. To control for confounders, each mouse contained one ear treated with saline (control). For imaging, mice were injected with 3 mg luciferin intravenously and imaged before and after treatment. Transgenic mice (BrafCA, PtenloxP, Tyr::CreERT2) were purchased from The Jackson Laboratory (IMSR Cat# JAX:013590, RRID:IMSR_JAX:013590). These mice were maintained on a C57Bl6 background and all experimental mice contained Tyr::CreER with either Braf^CA/+, Pten^fx/+; Braf^CA/CA, Pten^fx/+, or Braf^CA/+, Pten^fx/fx. […] Hypopigmented melanomas sporadically formed over the next 3-5 months, typically on the back of the mouse. These melanomas were then directly injected with 100 µL of either 20 mg/mL ES2+10%DMSO, saline+10%DMSO, saline+10%Dabrafenib, or 20 mg/mL ES2+10%Dabrafenib. The researchers were not blinded to the experiment, but each mouse contained an internal control and all imaging was done with the same exposure times based upon control tissue. For survival analyses, either 750,000 or 25,000 A375-Luc/iRFP cells were injected intradermally into NSG mice. […] Mice were then monitored daily and allowed to age until a humane endpoint was reached according to our IACUC protocol, which in this case was tumours of 2 cm in size. […]

A375 cells = assay: Annexin V live cell stain, kinetics of apoptosis; format: cell-based, human; conditions: 8 µM ES2, A375 cells, linear regression comparison p<0.001
FOXO4-TP53 foci = assay: Proximity Ligation Assay; format: cell-based, human; conditions: 8 µM ES2, 1 hour
Method: Senescent and dividing A375 cells were plated in 96-well plates (Cellvis P96-1.5P) at concentration of 20,000 cells per well. The following day, the cells were treated with 8 µM ES2 for 0, 1, and 4 hours. The plate was then fixed with 4% paraformaldehyde for 10 minutes at room temperature. Cells were washed with PBS twice then permeabilized with 0.1% Triton™ X-100 in PBS for 15 minutes. The duolink® In Situ Red Starter Kit Mouse/Rabbit was then used according to manufacturer's protocol with exception of 1:10 dilution of PLUS and MINUS PLA probes. Primary antibodies used were FOXO4 (Cell Signaling Technology Cat# 9472, RRID:AB_10831833, diluted 1:1000), TP53BP1 (BD Biosciences Cat# 612523, RRID:AB_399824, diluted 1:2000), and TP53 (Santa Cruz Cat# sc-126, RRID:AB_628082, diluted 1:500). Z-stacks with 0.34 um steps were captured on a Zeiss Axio Observer Z.1 inverted microscope using a Plan-Apochromat 40 × 0.95 NA lens. The system is setup for widefield fluorescence imaging using a Colibri 7 LED source and a Hamamatsu Orca-flash 4.0 LT black and white camera. The widefield z-stacks were flattened into maximum intensity projections as a pre-processing step before the analysis. Fluorescent foci were counted using the Zeiss Zen software Analysis feature. Briefly, the DAPI staining was used to define the nuclear regions. […] The total number of foci per nucleus was recorded.

Sequence: PRKGGRRRRAWGRRRRRRRRRRRRRRAPRKRLTLA [ES2]
- effect on survival time, in words ([1]; 25,000 A375 cells): no effect on survival time
- effect on survival time, in words ([1]; 750,000 A375 cells): did not alter survival times
- rate of apoptosis, senescent compared to dividing cells (A375 cells): four-fold
- effect on FOXO4-TP53 foci in dividing cells (FOXO4-TP53 foci; dividing A375 cells): no effect on FOXO4-TP53 foci in dividing cells
- reduction of FOXO4-TP53 foci in senescent cells (FOXO4-TP53 foci; senescent A375 cells): 2 fold
